In brackets after ≈: the same amount, converted by molar mass.
How the values were obtained:
Format in all cases: functional
[1] = system: Rhizoctonia solani; assay: Fungicidal activity against Rhizoctonia solani by agar dilution method
[2] = system: Bipolaris oryzae; assay: Fungicidal activity against Bipolaris oryzae by agar dilution method
[3] = system: Pyricularia oryzae; assay: Fungicidal activity against Magnaporthe oryzae by agar dilution method
[4] = system: Nakataea oryzae; assay: Fungicidal activity against Magnaporthe salvinii by agar dilution method
[5] = system: Rhizoctonia solani; assay: In vivo fungicidal activity against Rhizoctonia solani in rice seedlings assessed as control of sheath blight disease at 500 ppm by curative foliar treatment
[6] = system: Rhizoctonia solani; assay: In vivo fungicidal activity against Rhizoctonia solani in rice seedlings assessed as control of sheath blight disease at 250 ppm by curative foliar treatment
[7] = system: Pyricularia oryzae; assay: Fungicidal activity against Magnaporthe oryzae in rice seedlings assessed as control of rice blast at 500 ppm by preventive foliar treatment
[8] = system: Fusarium fujikuroi; assay: Fungicidal activity against Fusarium fujikuroi by agar dilution method
[9] = system: Pyricularia oryzae; assay: Fungicidal activity against Magnaporthe oryzae in rice seedlings assessed as control of rice blast at 500 ppm by curative foliar treatment
[10] = system: Fusarium fujikuroi; assay: Fungicidal activity against Fusarium fujikuroi assessed as infected rice seedlings in seed disinfection against bakanae disease at 1000 ppm by soaking method

SMILES | MIC [1] [µg/mL] | MIC [2] [µg/mL] | MIC [3] [µg/mL] | MIC [4] [µg/mL] | Activity [5] [%] | Activity [6] [%] | Activity [7] [%] | MIC [8] [µg/mL] | Activity [9] [%] | Activity [10] [%]
NC(=O)c1c(N)oc2ccc(I)cc2c1=O | 12.5 (≈ 37.9 µM) | 12.5 (≈ 37.9 µM) | 3.12 (≈ 9.45 µM) | 3.12 (≈ 9.45 µM) | 100 | – | – | – | – | –
CCCC(C)(C)c1ccc2oc(N)c(C(N)=O)c(=O)c2c1 | > 100 | > 100 | 1.56 (≈ 5.41 µM) | 6.25 (≈ 21.7 µM) | 100 | – | – | – | – | –
CCc1ccc2oc(N)c(C(N)=O)c(=O)c2c1 | 3.25 (≈ 14 µM) | 25 (≈ 108 µM) | 0.78 (≈ 3.36 µM) | – | – | 90 | – | – | – | –
CC(=O)Nc1oc2ccc(C(C)(C)C)cc2c(=O)c1C(N)=O | 6.25 (≈ 20.7 µM) | 100 (≈ 331 µM) | 3.12 (≈ 10.3 µM) | 6.25 (≈ 20.7 µM) | 100 | – | – | – | – | –
CCOC(=O)Nc1oc2ccc(C(C)(C)C)cc2c(=O)c1C(N)=O | 50 (≈ 150 µM) | > 100 | 25 (≈ 75.2 µM) | 25 (≈ 75.2 µM) | 100 | – | – | – | – | –
Cc1oc2ccccc2c(=O)c1C(N)=O | > 100 | > 100 | > 100 | > 100 | 0 | – | – | – | – | –
NC(=O)c1c(N)oc2c(Cl)cc(Cl)cc2c1=O | 100 (≈ 366 µM) | > 100 | > 100 | > 100 | 100 | – | – | – | – | –
CCCCc1ccc2oc(N)c(C(N)=O)c(=O)c2c1 | > 100 | > 100 | 50 (≈ 192 µM) | 50 (≈ 192 µM) | 90 | – | – | – | – | –
CC(C)C(C)(C)c1ccc2oc(N)c(C(N)=O)c(=O)c2c1 | > 100 | > 100 | 3.12 (≈ 10.8 µM) | 6.25 (≈ 21.7 µM) | 100 | – | – | – | – | –
NC(=O)c1c(N)oc2ccc(Cl)cc2c1=O | 6.25 (≈ 26.2 µM) | > 100 | 3.12 (≈ 13.1 µM) | 12.5 (≈ 52.4 µM) | – | 96 | – | – | – | –
O=c1[nH]cnc2oc3ccccc3c(=O)c12 | > 100 | > 100 | > 100 | > 100 | 0 | – | – | – | – | –
CNC(=O)Nc1oc2ccc(C(C)(C)C)cc2c(=O)c1C(N)=O | > 100 | 100 (≈ 315 µM) | 0.78 (≈ 2.46 µM) | 0.78 (≈ 2.46 µM) | 100 | – | – | – | – | –
C/C(=N/Nc1nc(C)cc(C)n1)c1ccccc1C [FERIMZONE] | 50 (≈ 197 µM) | 25 (≈ 98.3 µM) | 3.12 (≈ 12.3 µM) | 1.56 (≈ 6.13 µM) | 100 | – | 99 | > 100 | 100 | –
NC(=O)c1c(N)oc2c(Br)cc(Br)cc2c1=O | > 100 | > 100 | > 100 | > 100 | 76 | – | – | – | – | –
NC(=O)c1c(N)oc2ccc(Br)cc2c1=O | 3.12 (≈ 11 µM) | > 100 | 1.56 (≈ 5.51 µM) | 1.56 (≈ 5.51 µM) | 100 | – | – | – | – | –
CC(C)c1ccc2oc(N)c(C(N)=O)c(=O)c2c1 | 100 (≈ 406 µM) | 100 (≈ 406 µM) | 1.56 (≈ 6.33 µM) | 3.12 (≈ 12.7 µM) | 85 | – | 74 | > 100 | 94 | 6
NC(=O)c1c(N)oc2ccc(F)cc2c1=O | 12.5 (≈ 56.3 µM) | > 100 | 25 (≈ 113 µM) | 25 (≈ 113 µM) | 100 | – | – | – | – | –
NC(=O)c1c(N)oc2ccccc2c1=O | 12.5 (≈ 61.2 µM) | > 100 | 25 (≈ 122 µM) | 12.5 (≈ 61.2 µM) | – | 100 | – | – | – | –
N#Cc1c(N)oc2ccccc2c1=O | > 100 | > 100 | > 100 | > 100 | 0 | – | – | – | – | –
CC(C)(C)c1ccc2oc(N)c(C(N)=O)c(=O)c2c1 | 0.78 (≈ 3 µM) | 6.25 (≈ 24 µM) | 0.78 (≈ 3 µM) | 0.78 (≈ 3 µM) | 100 | – | 81 | 12.5 (≈ 48 µM) | 96 | 3
CNc1oc2ccc(C(C)(C)C)cc2c(=O)c1C(N)=O | 25 (≈ 91.1 µM) | 25 (≈ 91.1 µM) | 1.56 (≈ 5.69 µM) | 1.56 (≈ 5.69 µM) | 100 | – | – | – | – | –
CC(=O)Nc1oc2ccccc2c(=O)c1C(N)=O | 25 (≈ 102 µM) | > 100 | 50 (≈ 203 µM) | 100 (≈ 406 µM) | 90 | – | – | – | – | –
CCC(C)(CC)c1ccc2oc(N)c(C(N)=O)c(=O)c2c1 | > 100 | > 100 | 1.56 (≈ 5.41 µM) | 3.12 (≈ 10.8 µM) | 100 | – | – | – | – | –
CCC(C)(C)c1ccc2oc(N)c(C(N)=O)c(=O)c2c1 | > 100 | 50 (≈ 182 µM) | 3.12 (≈ 11.4 µM) | 6.25 (≈ 22.8 µM) | 100 | – | – | – | – | –
CC(C)(C)c1ccc2oc3nc[nH]c(=O)c3c(=O)c2c1 | > 100 | > 100 | > 100 | > 100 | 0 | – | – | – | – | –
CCC(C)c1ccc2oc(N)c(C(N)=O)c(=O)c2c1 (centres undefined) | 6.25 (≈ 24 µM) | 25 (≈ 96 µM) | 0.78 (≈ 3 µM) | 0.78 (≈ 3 µM) | 79 | – | 19 | > 100 | 96 | 6.5
Cc1ccc2oc(N)c(C(N)=O)c(=O)c2c1 | 6.25 (≈ 28.6 µM) | 25 (≈ 115 µM) | 6.25 (≈ 28.6 µM) | 6.25 (≈ 28.6 µM) | – | 100 | – | – | – | –

— ChEMBL document CHEMBL3046963, “Fungicidal Activity of 2-Aminochromone-3-carboxamides” (1990)
